According to patent US9950048B2, “Immunogenic epitopes for immunotherapy” (immatics biotechnologies GmbH, priority 2007, dated 2018):
Ends that are not written are not given here.

Tests used:
[1] = test system: CD8+ T cells of healthy HLA-A*02+ donors; assay: In vitro priming of CD8+ T cells with pMHC/anti-CD28 coated beads (high density), tetramer analysis; format: cell-based, human; settings: for Immunogenicity detected: at least one well with ≥1% specific tetramer+ among CD8+ T-cells and ≥10× median of negative controls; for Positive donors/donors tested / Positive donors/donors tested (%) / Positive wells/wells tested / Positive wells/wells tested (%): high density beads
Protocol: To perform in vitro stimulations by artificial antigen presenting cells (aAPC) loaded with peptide-MHC complex (pMHC) and anti-CD28 antibody, first PBMCs (peripheral blood mononuclear cells) were isolated from fresh HLA-A*02+ buffy coats by using standard density gradient separation medium (PAA, Cölbe, Germany). Buffy coats were either obtained from the Blood Bank Tübingen or from the Katharinenhospital Stuttgart. Isolated PBMCs were incubated overnight in T-cell medium (TCM) for human in vitro priming consisting of RPMI-Glutamax (Invitrogen, Karlsruhe, Germany) supplemented with 10% heat inactivated human AB serum (PAA, Cölbe, Germany), 100 U/ml Penicillin/100 μg/ml Streptomycin (Cambrex, Verviers, Belgium), 1 mM sodium pyruvate (CC Pro, Neustadt, Germany) and 20 μg/ml Gentamycin (Cambrex). CD8+ lymphocytes were isolated using the CD8+ MACS positive selection kit (Miltenyi, Bergisch Gladbach, Germany) according to the manufacturer's instructions. Obtained CD8+ T-cells were incubated until use in TCM supplemented with 2.5 ng/ml IL-7 (PromoCell, Heidelberg, Germany) and 10 U/ml IL-2 (Chiron, Munich, Gemany). Generation of pMHC/anti-CD28 coated beads, T-cell stimulations and readout was performed as described before (Walter, S, et al., 2003, J. Immunol., 171, 4974-4978) with minor modifications. Briefly, biotinylated recombinant HLA-A*0201 molecules lacking the transmembrane domain and being biotinylated at the carboxy terminus of the heavy chain were produced following a method described by (Altman, J D, et al., 1996, Science, 274, 94-96). The purified costimulatory mouse IgG2a anti human CD28 Ab 9.3 (Jung, G, Ledbetter, J A, and Muller-Eberhard, H J; 1987, Induction of cytotoxicity in resting human T lymphocytes bound to tumor cells by antibody heteroconjugates, Proc Natl Acad Sci USA, 84, 4611-4615) was chemically biotinylated using Sulfo-N-hydroxysuccinimidobiotin as recommended by the manufacturer (Perbio, Bonn, Germany).
800,000 beads/200 μl were coated in 96-well plates in the presence of 600 ng biotin anti-CD28 plus 200 ng relevant biotin-pMHC (high density beads) or 2 ng relevant plus 200 ng irrelevant (pMHC library) MHC (low density beads). Stimulations were initiated in 96-well plates by conincubating 1×10^6 CD8+ T cells with 2×10^5 washed coated beads in 200 μl TCM supplemented with 5 ng/ml IL-12 (PromoCell) for 3-4 days at 37° C. Half of the medium was then exchanged by fresh TCM supplemented with 80 U/ml IL-2 and incubation was continued for 3-4 days at 37° C. This stimulation cycle was performed for a total of three times. Finally, tetrameric analyses were performed with fluorescent MHC tetramers (produced as described by (Altman, J D, et al., 1996, Science, 274, 94-96)) plus antibody CD8-FITC clone SK1 (BD, Heidelberg, Germany) on a four-color FACSCalibur (BD). Peptide specific cells were calculated as percentage of total CD8+ T cells. Evaluation of tetrameric analysis was performed using the software FCS Express (De Novo Software). In vitro priming of specific tetramer+CD8+ lymphocytes was detected by appropriate gating and by comparison to negative control stimulations.
Peptides of the present invention were tested together with peptides of known in vivo immunogenicity for comparison. The CEA-005 peptide that was optimised for in vitro T-cell induction (Fong, L, et al., 2001, J. Immunol., 166, 4254-4259) served as control.
Results of in vitro immunogenicity experiments conducted by immatics are summarised here. Results shown have been obtained by stimulation of CD8+ cells with high density beads. As different human serum lots may highly affect the immunogenicity results, only assays in which one and the same serum lot was used, were evaluated together.

[2] = Particle size/shape measurement and analytical HPLC of reconstituted IMA910 suspension; format: physicochemical; settings: analytical HPLC of suspension
Protocol: Particle size distribution and particle shape measurement of the particles obtained after reconstitution have been performed by capturing direct images of each individual particle in the range of 0.25 to 100 μm followed by image analysis.
Furthermore, analytical HPLC was performed for a closer characterization of the obtained suspension.
IMA910 is dissolved in 700 μL sodium hydrogen carbonate (4.2%).

[3] = test system: monocyte-depleted PBMCs of one healthy donor; assay: In vitro priming with peptide-pulsed autologous DCs, intracellular IFNγ staining (ICS) read-out; format: cell-based, human
Protocol: FIGS. 7a and 7b depict the in vitro immunogenicity of TGFBI-004 as detected by ICS after five stimulation cycles.
Cells were primed with TGFBI-004-loaded autologous DCs and restimulated repeatedly with autologous PBMCs plus TGFBI-004. For the read-out cells were incubated with relevant TGFBI-004 (Well 1, 2, 3 and 4) and irrelevant (Neg. Control) peptide, respectively. Additionally to the intracellular IFNγ staining, cells were also stained with CD4-FITC and OCD8-PerCP antibodies. The analysis was performed on a four-color FACSCalibur cytometer (BD Biosciences, Germany).
(§1) Priming and expansion of specific human CD4+ and CD8+ cells were assayed in vitro by priming of monocyte-depleted PBMCs with autologous DCs and restimulation with autologous PBMCs. […] As a read-out system, IFNγ production upon short term restimulation was assessed by ELISPOT and flow cytometry. T cells were analysed after […] stimulations by ELISPOT and intracellular IFNγ staining plus CD4-FITC and CD8-PerCP to determine the percentage of IFNγ-producing cells in specific T-cell subpopulations. In this experiment, cells stimulated with TGFBI-004 peptide from different wells were pooled, incubated with irrelevant peptide for the read-out and performed as negative controls. […]
(§2) To generate CD4+ T cells, 3 Million PBMCs/PBLs were stimulated with 2×10^5 autologuous DCs. […] After being washed with DC medium, cell number was determined. […]

[4] = test system: monocyte-depleted PBMCs of one healthy donor; assay: In vitro priming with peptide-pulsed autologous DCs, IFNγ ELISPOT read-out; format: cell-based, human
Protocol: FIG. 6 depicts the in vitro immunogenicity of TGFBI-004 as detected by IFNγ ELISPOT after five stimulation cycles.
Cells were primed and restimulated repeatedly with TGFBI-004 and then incubated with relevant TGFBI-004 (Well 1, 2, 3 and 4) and irrelevant (Neg. control) peptide, respectively. The analysis after IFNγ ELISPOT was performed on an ELISPOT Reader (CTL, Cleveland, USA). PHA-Ionomycin served as positive control. Numbers indicate the count of positive spots.
as §1, §2

## ALSNLEVTL [Peptide C20-001]
[1]
  Immunogenicity detected: yes
  Positive donors/donors tested: 1/5
  Positive donors/donors tested (%): (20%)
  Positive wells/wells tested: 1/60
  Positive wells/wells tested (%): (2%)

## ALTTLMHQL (listed as Homo sapiens) [PTP-001]
[1]
  Immunogenicity detected: yes

## CCN-001: 9 amino acid peptide in vaccine IMA910, supplied as chloride salt (LLGATCMFV; also: chloride salt) [reference compound]
[1]
  Immunogenicity detected: yes
  Positive donors/donors tested: 5/5
  Positive donors/donors tested (%): (100%)
  Positive wells/wells tested: 42/54
  Positive wells/wells tested (%): (78%)
[2]
  amount of peptide found in the particles: low amounts

## KIFDEILVNA [TOP-001]
[1]
  Immunogenicity detected: yes
  Positive donors/donors tested: 2/5
  Positive donors/donors tested (%): (40%)
  Positive wells/wells tested: 7/72
  Positive wells/wells tested (%): (10%)
[2]
  amount of peptide found in the particles: low amounts

## KLMDLDVEQL [PCN-001]
[1]
  Immunogenicity detected: yes
  Positive donors/donors tested: 3/4
  Positive donors/donors tested (%): (75%)
  Positive wells/wells tested: 4/42
  Positive wells/wells tested (%): (10%)

## KLTDIQIEL (listed as Homo sapiens) [JAK-001]
[1]
  Immunogenicity detected: yes

## SLWAGVVVL (listed as Homo sapiens) [CHI-001]
[1]
  Immunogenicity detected: yes

## TPPIDAHTRNLLRNH (listed as Homo sapiens) [TGFBI-004]
[3]
  T-cell lines with specific IFNγ producing CD4+ and/or CD8+ cells via ICS: 3 out of 4
[4]; one donor tested, autologous system
  induction of CD4+ and CD8+ T cell responses: able to elicit CD4+ and CD8+ T cell responses
[4]; one healthy donor, IFNγ ELISPOT
  T-cell lines with T-cell responses detected via ELISPOT: 2 out of 4
